# Measured values as given in patent publication US5739131A, “Benzene derivatives and pharmaceutical composition” (Kureha Chemical Industry Co., Ltd., priority 1994, dated 1998).
# Key:
# [1] = tested on: kidney disease model rats; assay: Action to depress blood pressure (tail cuff method); assay type: in vivo, Sprague-Dawley female rats; settings: 20 mg/kg per os
# hyperlipemia model rats = settings: cited from earlier work
# [2] = tested on: kidney disease model rats; assay: Renal function indicatory value (action to kidney diseases); assay type: in vivo, Sprague-Dawley female rats; settings: 20 mg/kg/day per os, two weeks
# [3] = tested on: kidney disease model rats; assay: Action to survival time of kidney diseased animals; assay type: in vivo, Sprague-Dawley female rats; settings: 20 mg/kg/day per os, observation eight weeks (upper limit); control 5.0
smiles,measurement,setting,value
"CCCCc1nc(Cl)c(CO)n1Cc1ccc(-c2ccccc2-c2nnn[nH]2)cc1 [DuP753, 2-butyl-4-chloro-5-(hydroxymethyl)-1-[[2'-(1H-tetrazol-5-yl)biphenyl-4-yl]methyl]imidazole, reference compound]",action to depress the blood pressure,[1]; in comparison with control group,clearly showed the action to depress the blood pressure
same,Blood pressure,"[1]; systolic, average, two days from administration, control (water) 203",135 mmHg
same,Blood pressure,hyperlipemia model rats; large dose,an evident reduction of blood pressure was observed
same,effect to blood pressure,hyperlipemia model rats; lower dose,without practical effect to blood pressure
same,kidney disease improvement,hyperlipemia model rats; lower dose,the kidney disease was improved in a lower dose
same,Creatinine clearance,"[2]; 24 hours urine, control 0.20",0.32 mL/min
same,Creatinine,"[2]; serum, control 2.0",1.6 mg/dL
same,Urea nitrogen,"[2]; serum, control 100",80 mg/dL
same,Average survival time,[3],6.9 weeks
